# In the RepoRT retention time repository:
# Assay: RP, Waters ACQUITY UPLC BEH C18, 50 × 2.1 mm, 1.7 µm, 40 °C, 0.6 mL/min, estimated dead time 0.18 min; A: water + 0.1% formic acid, pH 3; B: acetonitrile + 0.1% formic acid, pH 3; gradient (min/%B) 0/5 7/100 8/100
# Conditions: stereoisomer not certain
row,SMILES,LC retention time [min]
1,CC1CCC2(C)C(CCC(O)C2(C)O)C1(C)CC(O)c1ccoc1 (stereo not given),5.61
2,CCN1CC2(COC(=O)c3ccccc3N)CCC(OC)C34C5CC6C(OC)CC(O)(C5C6OC)C(O)(C(OC)C23)C14 (stereo not given),2.4
3,O=C1CC(c2ccc(O)cc2)Oc2c1c(O)cc(O)c2C1C(=O)c2c(O)cc(O)cc2OC1c1ccc(O)cc1 (stereo not given),2.36
4,COC(=O)C1=COC(C)C2CN3CCC4(C(=O)Nc5ccccc54)C3CC12 (stereo not given),1.69
5,COc1cc2c(cc1O)CC1NCCc3cc(O)c(OC)c-2c31 (stereo not given),1.11
6,COc1ccc(C(=O)[C@@H](c2coc3cc(O)ccc3c2=O)C(c2ccc(O)cc2)c2ccc(O)cc2)c(OC)c1,3.68
7,C=C1COC(=O)C12C[C@@]1(C)C([C@@H](OC(=O)/C(C)=C\C)CC[C@@H]1C)[C@H]2OC(C)=O (stereo not given in full),4.16
8,CC1CC(O)C2(C)C(CCC(O)C2(C)O)C1(C)CC(=O)c1ccoc1 (stereo not given),2.35
9,COc1ccc([C@@]23Oc4cc5c(c(OC)c4[C@]2(O)[C@H](O)[C@H](C(=O)N(C)C)[C@H]3c2ccccc2)OCO5)cc1,3.26
10,CC1CC2CC(=O)C3CCCN4CCCC2C34C1 (stereo not given),1.06
11,CC(C)=CCc1c(O)cc2oc(-c3ccc(O)cc3)c(O)c(=O)c2c1O,3.98
12,COc1cc(/C=C/C(=O)OCC(Cc2ccc(O)c(OC)c2)C(COC(C)=O)Cc2ccc(O)c(OC)c2)ccc1O (stereo not given),2.3
13,CCN1CC2(COC(=O)c3ccccc3N3C(=O)CC(C)C3=O)CCC(OC)C34C5CC6C(OC)CC(O)(C5C6OC)C(O)(C(OC)C23)C14 (stereo not given),2.22
14,COC(=O)[C@@]12C[C@@H]3C[C@H]([C@H](C)O)C1N(CCc1c2[nH]c2ccccc12)C3,1.91
15,C=C(CO)C(=O)OC1CC(=C)C2CC(=O)C(C)C2C2OC(=O)C(=C)C12 (stereo not given),3.08
16,CC(C)(O)/C=C/C(=O)[C@](C)(O)[C@H]1[C@H](O)C[C@@]2(C)[C@@H]3CC=C4[C@@H](C[C@H](O)C(=O)C4(C)C)[C@]3(C)C(=O)C[C@]12C,2.77
17,CCC1C2CCCCN3CCC(C4C(C)C(=O)OC14)C23 (stereo not given),1.34
18,C=C1C(=O)O[C@@H]2C[C@@]3(C)CCCC(=C)[C@@H]3C[C@H]12,4.2
19,"CCCCCCCCCCC[C@@H]1CCC[C@@H](C)N1 [(2R,6R)-2-methyl-6-undecylpiperidine]",4.03

row,SMILES,LC retention time [min]
1,"CCCCCCCCCCCCC[C@@H]1CCC[C@@H](C)N1 [(2R,6R)-2-methyl-6-tridecylpiperidine]",4.58
2,C[C@@H]1CC2(N=CCS2)[C@]2(O)OC3C[C@@]4(C=O)C(CCC5C4CC[C@]4(C)C(C6=CC(=O)OC6)CC[C@]54O)CC3OC2O1 (stereo not given in full),0.662
3,C[C@@H]1CC2(NCCS2)[C@]2(O)OC3C[C@@]4(C=O)C(CCC5C4CC[C@]4(C)C(C6=CC(=O)OC6)CC(O)[C@]54O)CC3OC2O1 (stereo not given in full),0.365
4,CC1CC(C2CCC3N2CCCCC32CC(C)C(=O)O2)OC1=O (stereo not given),1.07
5,C/C=C1/CN(C)C[C@H]2Cc3c([nH]c4ccccc34)C(=O)C[C@@H]12,1.62
6,COc1ccc2c3c1OC1C(O)C=CC4C(C2)N(C)CCC341 (stereo not given),0.85
7,COC(=O)C1=CC(O)C23OOC1CC2(C)CCC3C(C)C (stereo not given),3.72
8,C=C1COC(=O)C12C[C@@]1(C)C([C@@H](OC(=O)/C=C/SC)CC[C@@H]1C)[C@H]2OC(C)=O (stereo not given in full),4.07
9,COc1ccc2c(c1)CC1c3c(cc4c(c3-2)OCO4)CCN1C (stereo not given),2.15
10,"CCCCCCCCCCCCCCC[C@@H]1CCC[C@@H](C)N1 [(2R,6R)-2-methyl-6-pentadecylpiperidine]",5.12
11,CCCCCCCCCCCCO[C@@H]1O[C@@H](C)[C@H](OC(C)=O)[C@@H](O[C@@H]2O[C@@H](C)[C@H](OC(C)=O)[C@@H](O[C@@H]3O[C@@H](C)[C@H](OC(C)=O)[C@@H](O)[C@H]3O)[C@H]2OC(C)=O)[C@H]1O,6.32
12,Oc1ccc(C2Oc3cc(O)cc4c3C2c2cc(O)cc(O)c2C(c2ccc(O)cc2)C2c3cc(O)cc(O)c3C(c3ccc(O)cc3)C42)cc1 (stereo not given),2.23
13,COc1c(O)c(OC)c(C(=O)C2CC=C(CCC=C(C)C)CC2c2ccccc2)c(O)c1OC (stereo not given),5.76
14,C=C(CO)C(=O)OC1CC(=C)C2CC(O)C(=C)C2C2OC(=O)C(=C)C12 (stereo not given),2.16
15,C=C(C(=O)C(O)C(C)C1C(OC(C)=O)CC2(C)C3CCC4C(C)C(=O)C=CC45CC35CCC12C)C(C)CO (stereo not given),4.1
16,CC(=O)OC(C)(C)/C=C/C(=O)[C@](C)(O)[C@H]1[C@H](O)C[C@@]2(C)[C@@H]3CC=C4C(C=C(O)C(=O)C4(C)C)[C@]3(C)C(=O)C[C@]12C (stereo not given in full),3.63
17,C=C1C(=O)C23C(O)CC4C(C)(C)CCCC4(COC(C)=O)C2C(O)CC1C3O (stereo not given),2.42
18,CC[C@@H]1CN(C)C[C@@]2(C(=O)OC)Cc3c([nH]c4ccccc34)C(=O)C[C@@H]12,1.76
19,C=C1[C@@H](O)C[C@H]2C(C)(C)C[C@H](O)C[C@]2(C)[C@H]1CC1C(C)=CCC2C(=O)C(OC)=CC(=O)C21c1cc(=O)c2c(O)cc(O)cc2o1 (stereo not given in full),0.702

# Results, then the compound that gave them:
row,LC retention time [min],SMILES
1,2.12,C=C1[C@@H](O)C[C@H]2C(C)(C)CCC[C@]2(C)[C@H]1CC1C(C)=CCC2C(=O)C(OC)=CC(=O)C21c1cc(=O)c2c(O)cc(O)cc2o1 (stereo not given in full)
2,0.975,COc1cc(CC[N+](C)(C)C)c2ccc3cc4c(c5c3c2c1OC5)OCO4
3,1.69,COc1ccc2cc1-c1cc(ccc1O)C[C@@H]1NCCc3cc4c(cc31)Oc1c(c(OC)c(O)c3c1[C@H](C2)N(C)CC3)O4
4,2.84,CC(=O)OC/C=C(\C)C(=O)OC1C(=O)C(CO)=CC(OC(C)=O)C1C(C)C (stereo not given)
5,3.06,CC(=O)OC(C)(C)CCC(=O)[C@](C)(O)C1[C@H](O)C[C@@]2(C)C3CC=C4C(C[C@H](O)[C@@H](O)C4(C)C)[C@]3(C)C(=O)C[C@]12C (stereo not given in full)
6,3.42,"Cc1coc2c1C(=O)C(=O)c1c-2ccc2c(C)cccc12 [1,6-dimethyl-10H,11H-phenanthro[1,2-b]furan-10,11-dione]"
7,2.6,CC12CCCc3coc(c31)C(=O)c1cc3c(cc12)C(=O)C=CC3=O (stereo not given)
8,1.59,COc1cc2c(cc1O)C(Cc1ccc(OC3=CC4(C=CC3=O)CC3c5c(cc(OC)c(OC)c54)CCN3C)cc1)N(C)CC2 (stereo not given)
9,2.62,COc1ccc(-c2oc3cc(OC)c(OC)c(O)c3c(=O)c2OC)cc1O
10,3.08,COc1ccc(-c2oc3cc(O)c(OC)c(O)c3c(=O)c2OC)cc1
11,5.96,CCCCCCCCCCCC(=O)OC12CC(C)C3(O)C(C4OC4(CO)C(O)C4(O)C(=O)C(C)=CC43)C1C2(C)C (stereo not given)
12,4.37,C[C@H](C/C=C/C(C)(C)O)[C@H]1CC[C@@]2(C)C3C(=O)C=C4C(CCC(O)C4(C)C)[C@]3(C)CC[C@]12C (stereo not given in full)
13,4.6,C=C(C(=O)C(O)C(C)C1C(OC(C)=O)CC2(C)C3CCC4C(C)C(=O)CCC45CC35CCC12C)C(C)CO (stereo not given)
14,2.74,C/C=C/C(=O)CC1C(=O)C=CC1(CCCCCCCC(=O)O)OC(C)=O (stereo not given)
15,3.6,CC1=C2CC3(C)C(C)CCCC3CC2(O)OC1=O (stereo not given)
16,3.02,C=C1[C@@H](O)C[C@H]2[C@](C)(CO)CCC[C@]2(C)[C@H]1CC1C(C)=CCC2C(=O)C(OC)=CC(=O)C21c1cc(=O)c2c(O)cc(O)cc2o1 (stereo not given in full)
17,1.55,CCC1C2CCCCN3C(C4CC(C)C(=O)O4)CC(C4C(C)C(=O)OC14)C23 (stereo not given)
18,5.19,CC(C)=CC1CC(C2CCC3(C)C4=CCC5C(C)(C)C(O)CCC5(C)C4CC(C=O)=C23)C(O)O1 (stereo not given)
19,2.39,CC(=O)OC1CC(O)C23COC(O)C1(C)C2CC(O)C1(C)C3=C(O)C(=O)C2(C)C(c3ccoc3)CC3OC312 (stereo not given)

row,LC retention time [min],SMILES
1,2.27,COc1ccc2c3c(c4cc(OC)c(OC)cc4c2c1)CC1CCCN1C3 (stereo not given)
2,2.43,Cn1c(-c2ccc3c(c2)OCO3)cc(=O)c2ccccc21
3,1.09,COC1=CC(=O)C2(c3cc(=O)c4c(O)cc(O)cc4o3)C(CC=C(C)C2C[C@@]2(O)C(C)(O)CC[C@H]3C(C)(C)C[C@H](O)C[C@@]32C)C1=O (stereo not given in full)
4,2.6,"CC/C=C/CC(O)C(O)/C=C/C(O)CCCCCCCC(=O)O (stereo not given) [(10E,15E)-9,12,13-trihydroxyoctadeca-10,15-dienoic acid]"
5,4,CC1(C(=O)O)CCCC2(C)C3CCC4CC3(C=C4C=O)CCC12 (stereo not given)
6,4.26,C=C1C(=O)O[C@@H]2C[C@@]3(C)CCC[C@H](C)C3=C[C@H]12
7,6.51,CCCC(CC(=O)O)C1=C2OC(=O)C(C(=O)CC(C)C)=C(O)C2(CC=C(C)C)CC(CC=C(C)C)C1(C)C (stereo not given)
8,2.78,O=C1CC(c2ccc(O)cc2)Oc2cc3c(c(O)c21)C(C(=O)c1ccc(O)cc1O)C(c1ccc(O)cc1)O3 (stereo not given)
9,5.46,C=C(C(=O)C(OC(C)=O)C(C)C1C(OC(C)=O)CC2(C)C3CCC4C(C)C(=O)C=CC45CC35CCC12C)C(C)C (stereo not given)
10,6.36,CCC(C)C(=O)C1=C(O)C2(CC=C(C)C)CC(CC=C(C)C)C(C)(C)C(C(CC(=O)O)c3ccccc3)=C2OC1=O (stereo not given)
11,5.69,C=C1CC23CCC4C(C)(C(=O)O)CCCC4(C)C2CCC1C3 (stereo not given)
12,2.67,O=C1c2ccc(O)cc2OC(c2ccc(O)cc2)C1C1C(=O)c2ccc(O)cc2OC1c1ccc(O)cc1 (stereo not given)
13,6.25,C/C(=C/CC[C@H](C)[C@@H]1CC[C@]2(C)C3=CCC4C(C)(C)C(=O)CC[C@]4(C)C3CC[C@@]12C)C(=O)O (stereo not given in full)
14,1.69,COc1ccc(C2Oc3c(c(O)cc(O)c3C3C(=O)c4c(O)cc(O)cc4OC3c3ccc(O)cc3)C(=O)C2O)cc1O (stereo not given)
15,1.96,CC[C@@]12CC(C(=O)OC)=C3Nc4ccccc4[C@@]34CCN(C[C@H]3O[C@H]31)C24 (stereo not given in full)
16,0.319,O=C1c2c(O)cc(O)c(C3C(=O)c4c(O)cc(O)cc4OC3c3ccc(O)cc3)c2OC(c2ccc(O)c(O)c2)C1O (stereo not given)
17,6.55,CCCCCCCCCCCCCC(=O)OC12CC(C)C3(O)C(C4OC4(CO)C(O)C4(O)C(=O)C(C)=CC43)C1C2(C)C (stereo not given)
18,2.2,COc1ccc(-c2oc3cc(O)c(OC)c(O)c3c(=O)c2OC)cc1O
